Assay results from patent US20250320193A1, “OXOISOINDOLINYL SUBSTITUTED PIPERIDINEDIONE DERIVATIVE AND USE THEREOF” (GLUETACS THERAPEUTICS (SHANGHAI) CO., LTD., priority 2022, published 2025).

Tests used:
GSPT1 = GSPT1 (Homo sapiens (Human), UniProt P15170+Q96SW2); assay: Western blot, substrate protein expression in hPBMC: GSPT1; type: cell-based; conditions: hPBMC, compound 500 nM, 24 hours, Western blot
How it was run: (§1)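 hPBMC, 1×10^6 cells/mL, 24 h compound exposure; RIPA lysis, BCA protein assay, SDS-PAGE, NC membrane immunoblot. Densitometry vs internal control → % protein remaining; degradation % = 100% − remaining; DC50 = conc. at 50% of DMSO band signal.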

[1] = target: human Cereblon WT GST-tagged protein (Homo sapiens (Human), UniProt Q96SW2); assay: CRBN-binding affinity, HTRF (CEREBLON BINDING kit, CISBIO); conditions: HTRF inhibitory activity
Sequence of human Cereblon WT GST-tagged protein (Q96SW2 whole entry): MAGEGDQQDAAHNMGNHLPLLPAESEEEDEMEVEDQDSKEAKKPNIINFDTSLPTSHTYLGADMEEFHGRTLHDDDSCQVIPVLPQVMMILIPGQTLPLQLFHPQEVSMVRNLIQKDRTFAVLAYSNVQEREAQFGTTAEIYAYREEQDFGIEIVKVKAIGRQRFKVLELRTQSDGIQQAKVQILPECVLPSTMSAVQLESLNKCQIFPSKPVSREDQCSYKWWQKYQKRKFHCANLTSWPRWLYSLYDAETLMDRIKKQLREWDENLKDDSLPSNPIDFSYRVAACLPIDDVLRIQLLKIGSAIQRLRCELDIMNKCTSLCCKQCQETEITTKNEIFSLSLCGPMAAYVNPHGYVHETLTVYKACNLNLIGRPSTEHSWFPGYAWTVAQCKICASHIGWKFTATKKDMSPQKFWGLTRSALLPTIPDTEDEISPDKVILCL
How it was run: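 HTRF competition format: test compound displaces Thalidomide-Red from GST-tagged human Cereblon WT, detected with a Eu-labelled anti-GST antibody. Percent CRBN binding inhibition was derived from the 620 nm signal, normalized to solvent-control and protein-free blank wells.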

IKZF1 = IKZF1 (Homo sapiens (Human), UniProt Q13422+Q96SW2); assay: Western blot, substrate protein expression in hPBMC: IKZF1; type: cell-based; conditions: hPBMC, compound 500 nM, 24 hours, Western blot
Sequence of IKZF1 (Q13422 whole entry): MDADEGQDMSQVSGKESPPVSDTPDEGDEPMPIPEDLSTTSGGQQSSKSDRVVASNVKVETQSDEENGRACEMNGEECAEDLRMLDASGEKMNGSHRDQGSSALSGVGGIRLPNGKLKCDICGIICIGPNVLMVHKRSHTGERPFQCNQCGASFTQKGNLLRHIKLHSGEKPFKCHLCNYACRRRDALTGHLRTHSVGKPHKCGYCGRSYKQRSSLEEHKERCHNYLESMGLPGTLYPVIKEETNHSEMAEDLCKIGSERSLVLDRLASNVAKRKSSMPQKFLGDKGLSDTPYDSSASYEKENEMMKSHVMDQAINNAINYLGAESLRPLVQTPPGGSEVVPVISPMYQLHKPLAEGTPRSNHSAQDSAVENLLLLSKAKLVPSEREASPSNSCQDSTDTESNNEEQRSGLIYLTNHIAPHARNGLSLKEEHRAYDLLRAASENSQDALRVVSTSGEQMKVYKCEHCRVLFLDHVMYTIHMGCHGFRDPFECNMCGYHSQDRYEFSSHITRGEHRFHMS
Sequence of IKZF1 (Q96SW2 whole entry): as the sequence (Q96SW2 whole entry) above
Sequence of IKZF1 (Q16531 whole entry partner): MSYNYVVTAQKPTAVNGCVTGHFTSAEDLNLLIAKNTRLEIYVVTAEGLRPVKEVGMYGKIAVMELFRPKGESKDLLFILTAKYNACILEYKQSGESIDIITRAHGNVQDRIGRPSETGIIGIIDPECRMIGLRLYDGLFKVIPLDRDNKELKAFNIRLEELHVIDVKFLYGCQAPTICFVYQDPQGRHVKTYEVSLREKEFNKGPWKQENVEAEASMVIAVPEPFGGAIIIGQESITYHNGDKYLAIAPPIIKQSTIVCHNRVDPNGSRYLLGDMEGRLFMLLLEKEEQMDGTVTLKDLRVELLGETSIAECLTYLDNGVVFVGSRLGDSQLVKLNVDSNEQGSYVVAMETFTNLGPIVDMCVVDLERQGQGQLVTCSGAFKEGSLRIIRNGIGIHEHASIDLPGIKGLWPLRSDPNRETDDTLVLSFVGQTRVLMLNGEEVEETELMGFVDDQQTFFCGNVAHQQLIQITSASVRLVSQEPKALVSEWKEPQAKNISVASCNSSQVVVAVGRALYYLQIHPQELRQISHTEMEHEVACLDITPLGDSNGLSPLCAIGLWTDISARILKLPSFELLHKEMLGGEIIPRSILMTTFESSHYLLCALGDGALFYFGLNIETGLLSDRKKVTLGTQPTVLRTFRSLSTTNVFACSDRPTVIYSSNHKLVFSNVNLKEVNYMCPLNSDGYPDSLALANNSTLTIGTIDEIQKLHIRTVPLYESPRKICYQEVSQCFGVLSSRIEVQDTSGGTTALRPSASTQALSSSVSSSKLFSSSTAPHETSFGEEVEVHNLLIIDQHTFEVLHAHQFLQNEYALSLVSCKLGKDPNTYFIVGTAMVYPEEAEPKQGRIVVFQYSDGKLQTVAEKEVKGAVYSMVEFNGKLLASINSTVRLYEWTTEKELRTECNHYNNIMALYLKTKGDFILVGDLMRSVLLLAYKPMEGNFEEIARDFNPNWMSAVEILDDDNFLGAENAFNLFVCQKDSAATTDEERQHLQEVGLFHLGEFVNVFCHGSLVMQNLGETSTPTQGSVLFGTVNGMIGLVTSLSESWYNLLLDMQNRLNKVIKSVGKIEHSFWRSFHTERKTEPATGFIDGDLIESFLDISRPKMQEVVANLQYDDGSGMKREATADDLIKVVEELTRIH
How it was run: as §1

IKZF3 = IKZF3 (Homo sapiens (Human), UniProt Q96SW2+Q9UKT9); assay: Western blot, substrate protein expression in hPBMC: IKZF3; type: cell-based; conditions: hPBMC, compound 500 nM, 24 hours, Western blot
Sequence of IKZF3 (Q9UKT9 whole entry): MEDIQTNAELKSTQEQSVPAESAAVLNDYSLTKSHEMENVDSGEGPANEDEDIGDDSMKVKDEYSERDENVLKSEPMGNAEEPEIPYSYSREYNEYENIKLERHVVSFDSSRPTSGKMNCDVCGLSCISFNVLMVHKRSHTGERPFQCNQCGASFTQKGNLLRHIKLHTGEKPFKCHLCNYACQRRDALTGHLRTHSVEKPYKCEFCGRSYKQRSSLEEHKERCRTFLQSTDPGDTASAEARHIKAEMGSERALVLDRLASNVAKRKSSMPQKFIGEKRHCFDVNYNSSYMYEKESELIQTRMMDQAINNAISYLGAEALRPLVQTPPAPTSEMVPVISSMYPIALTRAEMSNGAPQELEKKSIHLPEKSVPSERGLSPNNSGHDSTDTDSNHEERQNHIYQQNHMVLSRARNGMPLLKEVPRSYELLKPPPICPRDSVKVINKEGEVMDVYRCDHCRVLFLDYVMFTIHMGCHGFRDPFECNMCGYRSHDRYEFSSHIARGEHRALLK
Sequence of IKZF3 (Q96SW2 whole entry): as the sequence (Q96SW2 whole entry) above
Sequence of IKZF3 (Q16531 whole entry partner): as the sequence (Q16531 whole entry partner) above
How it was run: as §1

Sequence of GSPT1 (P15170 whole entry): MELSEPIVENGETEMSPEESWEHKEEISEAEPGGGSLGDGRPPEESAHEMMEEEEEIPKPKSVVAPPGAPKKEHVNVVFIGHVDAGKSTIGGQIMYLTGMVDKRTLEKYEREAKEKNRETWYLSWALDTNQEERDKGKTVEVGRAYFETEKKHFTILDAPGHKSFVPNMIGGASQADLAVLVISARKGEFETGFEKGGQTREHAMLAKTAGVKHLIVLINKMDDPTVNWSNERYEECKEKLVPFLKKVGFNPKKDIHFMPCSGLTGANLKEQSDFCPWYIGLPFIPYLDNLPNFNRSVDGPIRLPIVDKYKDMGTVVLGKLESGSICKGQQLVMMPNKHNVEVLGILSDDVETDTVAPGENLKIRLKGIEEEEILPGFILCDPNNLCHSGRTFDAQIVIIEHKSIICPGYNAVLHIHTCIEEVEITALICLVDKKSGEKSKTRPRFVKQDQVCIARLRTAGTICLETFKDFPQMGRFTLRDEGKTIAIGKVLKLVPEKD
Sequence of GSPT1 (Q96SW2 whole entry): as the sequence (Q96SW2 whole entry) above
Sequence of GSPT1 (Q16531 whole entry partner): as the sequence (Q16531 whole entry partner) above

SMILES | IC50 [1] [µM] | substrate protein remaining % GSPT1 (GSPT1) | substrate protein remaining % IKZF1 (IKZF1) | substrate protein remaining % IKZF3 (IKZF3)
C[C@@H]1CN(C(c2ccccc2)c2ccccc2)CCN1C(=O)c1cc(F)c2c(c1)CN(C1CCC(=O)NC1=O)C2=O (stereo partly drawn) [GT-06093, 3-(5-((R)-4-benzhydryl-2-methylpiperazine-1-carbonyl)-7-fluoro-1-oxoisoindolin-2-yl)piperidine-2,6-dione] | 0.5 to 1 | A (A represents 0% ≤ substrate protein remaining % ≤ 50%) | B (B represents substrate protein remaining % > 50%) | B (B represents substrate protein remaining % > 50%)
O=C1CCC(N2Cc3cc(C(=O)N4CC5(CCN(C(c6ccccc6)c6ccccc6)CC5)C4)ccc3C2=O)C(=O)N1 (centres unmarked) [GT-05988, 3-(5-(7-benzhydryl-2,7-diazaspiro[3.5]nonane-2-carbonyl)-1-oxoisoindolin-2-yl)piperidine-2,6-dione] | < 0.5 | A (A represents 0% ≤ substrate protein remaining % ≤ 50%) | B (B represents substrate protein remaining % > 50%) | B (B represents substrate protein remaining % > 50%)
O=C1CCC(N2Cc3c(CN4CC5(CCN(C(c6ccccc6)c6ccccc6)CC5)C4)cccc3C2=O)C(=O)N1 (centres unmarked) [GT-05905, 3-(4-((7-benzhydryl-2,7-diazaspiro[3.5]nonan-2-yl)methyl)-1-oxoisoindolin-2-yl)piperidine-2,6-dione] | 0.5 to 1 | A (A represents 0% ≤ substrate protein remaining % ≤ 50%) | B (B represents substrate protein remaining % > 50%) | B (B represents substrate protein remaining % > 50%)
O=C1CCC(N2Cc3c(CN4CCN(C(c5ccccc5)c5ccncc5)CC4)cccc3C2=O)C(=O)N1 (centres unmarked) [GT-04945, 3-(1-oxo-4-((4-(phenyl(pyridin-4-yl)methyl)piperazin-1-yl)methyl)isoindolin-2-yl)piperidine-2,6-dione] | 0.5 to 1 | A (A represents 0% ≤ substrate protein remaining % ≤ 50%) | B (B represents substrate protein remaining % > 50%) | B (B represents substrate protein remaining % > 50%)
O=C1CCC(N2C(=O)c3ccc(N4CC5CCC4CN5C(c4ccccc4)c4ccccc4)cc3C2=O)C(=O)N1 (centres unmarked) [GT-05976, 5-(5-benzhydryl-2,5-diazabicyclo[2.2.2]octan-2-yl)-2-(2,6-dioxopiperidin-3-yl) isoindoline-1,3-dione] | < 0.5 | A (A represents 0% ≤ substrate protein remaining % ≤ 50%) | B (B represents substrate protein remaining % > 50%) | B (B represents substrate protein remaining % > 50%)
O=C1CCC(N2Cc3cc(C(=O)N4CCN(C5c6ccccc6-c6ccccc65)CC4)ccc3C2=O)C(=O)N1 (centres unmarked) [GT-05986, 3-(5-(4-(9H-fluoren-9-yl)piperazine-1-carbonyl)-1-oxoisoindolin-2-yl)piperidine-2,6-dione] | < 0.5 | A (A represents 0% ≤ substrate protein remaining % ≤ 50%) | B (B represents substrate protein remaining % > 50%) | B (B represents substrate protein remaining % > 50%)
O=C1CCC(N2Cc3c(C(=O)N4CCN(C(c5cccc(F)c5)c5cccc(F)c5)CC4)cccc3C2=O)C(=O)N1 (centres unmarked) [GT-06148, 3-(4-(4-(bis(3-fluorophenyl)methyl)piperazine-1-carbonyl)-1-oxoisoindolin-2-yl)piperidine-2,6-dione] | < 0.5 | A (A represents 0% ≤ substrate protein remaining % ≤ 50%) | B (B represents substrate protein remaining % > 50%) | B (B represents substrate protein remaining % > 50%)
O=C1CCC(N2Cc3cc(CN4C5CC4CN(C(c4ccccc4)c4ccccc4)C5)ccc3C2=O)C(=O)N1 (centres unmarked) [GT-03569, 3-(5-((3-benzhydryl-3,6-diazabicyclo[3.1.1]heptan-6-yl)methyl)-1-oxoisoindolin-2-yl)piperidine-2,6-dione] | 0.5 to 1 | A (A represents 0% ≤ substrate protein remaining % ≤ 50%) | B (B represents substrate protein remaining % > 50%) | A (A represents 0% ≤ substrate protein remaining % ≤ 50%)
O=C1CCC(N2Cc3c(CN4CCC(N(c5ccccc5)c5ccccc5)CC4)cccc3C2=O)C(=O)N1 (centres unmarked) [GT-04992, 3-(4-((4-(diphenylamino)piperidin-1-yl)methyl)-1-oxoisoindolin-2-yl)piperidine-2,6-dione] | < 0.5 | A (A represents 0% ≤ substrate protein remaining % ≤ 50%) | B (B represents substrate protein remaining % > 50%) | B (B represents substrate protein remaining % > 50%)

More lines, main results first:

IC50 [1] [µM] | SMILES | substrate protein remaining % GSPT1 (GSPT1) | substrate protein remaining % IKZF1 (IKZF1) | substrate protein remaining % IKZF3 (IKZF3)
< 0.5 | C[C@@H]1CN(C(c2ccccc2)c2ccccc2)CCN1Cc1ccc2c(c1)CN(C1CCC(=O)NC1=O)C2=O (stereo partly drawn) [GT-03571, 3-(5-(((R)-4-benzhydryl-2-methylpiperazin-1-yl)methyl)-1-oxoisoindolin-2-yl)piperidine-2,6-dione] | A (A represents 0% ≤ substrate protein remaining % ≤ 50%) | B (B represents substrate protein remaining % > 50%) | B (B represents substrate protein remaining % > 50%)
1 to 1.9 | O=C1CCC(N2Cc3cc(C(=O)N4CCN(C(c5ccccc5)c5ccccc5)CC4C(F)(F)F)cc(F)c3C2=O)C(=O)N1 (centres unmarked) [GT-06090, 3-(5-(4-benzhydryl-2-(trifluoromethyl)piperazine-1-carbonyl)-7-fluoro-1-oxoisoindolin-2-yl)piperidine-2,6-dione] | A (A represents 0% ≤ substrate protein remaining % ≤ 50%) | B (B represents substrate protein remaining % > 50%) | B (B represents substrate protein remaining % > 50%)
1 to 1.9 | O=C1CCC(N2Cc3cc(C(=O)N4CCN(C(c5ccccc5)c5ccccn5)CC4)cc(F)c3C2=O)C(=O)N1 (centres unmarked) [GT-05877, 3-(7-fluoro-1-oxo-5-(4-(phenyl(pyridin-2-yl)methyl)piperazine-1-carbonyl)isoindolin-2-yl)piperidine-2,6-dione] | A (A represents 0% ≤ substrate protein remaining % ≤ 50%) | B (B represents substrate protein remaining % > 50%) | B (B represents substrate protein remaining % > 50%)
1 to 1.9 | O=C1CCC(N2Cc3cc(C(=O)N4CCN(C(c5ccc(Cl)cc5)c5ccc(Cl)cc5)CC4)ccc3C2=O)C(=O)N1 (centres unmarked) [GT-05886, 3-(5-(4-(bis(4-chlorophenyl)methyl)piperazine-1-carbonyl)-1-oxoisoindolin-2-yl)piperidine-2,6-dione] | A (A represents 0% ≤ substrate protein remaining % ≤ 50%) | B (B represents substrate protein remaining % > 50%) | A (A represents 0% ≤ substrate protein remaining % ≤ 50%)
1 to 1.9 | O=C1CCC(N2Cc3c(ccc(CN4CCN(C(c5ccc(Cl)cc5)c5ccc(Cl)cc5)CC4)c3F)C2=O)C(=O)N1 (centres unmarked) [GT-03567, 3-(5-((4-(bis(4-chlorophenyl)methyl)piperazin-1-yl)methyl)-4-fluoro-1-oxoisoindolin-2-yl)piperidine-2,6-dione] | A (A represents 0% ≤ substrate protein remaining % ≤ 50%) | B (B represents substrate protein remaining % > 50%) | A (A represents 0% ≤ substrate protein remaining % ≤ 50%)
0.5 to 1 | O=C1CCC(N2Cc3cc(CN4CCN(C(c5ccccc5)c5ccccc5)CC4C(F)(F)F)ccc3C2=O)C(=O)N1 (centres unmarked) [GT-06095, 3-(5-((4-benzhydryl-2-(trifluoromethyl)piperazin-1-yl)methyl)-1-oxoisoindolin-2-yl)piperidine-2,6-dione] | A (A represents 0% ≤ substrate protein remaining % ≤ 50%) | B (B represents substrate protein remaining % > 50%) | B (B represents substrate protein remaining % > 50%)
1 to 1.9 | O=C1CCC(N2Cc3c(CN4CCC5(CC4)CCN(C(c4ccccc4)c4ccccc4)CC5)cccc3C2=O)C(=O)N1 (centres unmarked) [GT-06027, 3-(4-((9-benzhydryl-3,9-diazaspiro[5.5]undecan-3-yl)methyl)-1-oxoisoindolin-2-yl)piperidine-2,6-dione] | A (A represents 0% ≤ substrate protein remaining % ≤ 50%) | B (B represents substrate protein remaining % > 50%) | B (B represents substrate protein remaining % > 50%)
0.5 to 1 | O=C1CCC(N2Cc3cc(C(=O)N4CCC5(CCN(C(c6ccccc6)c6ccccc6)CC5)C4)ccc3C2=O)C(=O)N1 (centres unmarked) [GT-06063, 3-(5-(8-benzhydryl-2,8-diazaspiro[4.5]decane-2-carbonyl)-1-oxoisoindolin-2-yl)piperidine-2,6-dione] | A (A represents 0% ≤ substrate protein remaining % ≤ 50%) | B (B represents substrate protein remaining % > 50%) | B (B represents substrate protein remaining % > 50%)
